Results published in ChEMBL document CHEMBL1152465, “Comparative evaluation of the inhibitory activities of a series of pyrimidinedione congeners that inhibit human immunodeficiency virus types 1 and 2” (Antimicrob Agents Chemother, 2008).
Activity calls are given as the source filed them.

Tests used:
[1] = system: Human immunodeficiency virus 2; test: Antiviral activity against HIV2 ROD infected in human CEM-SS cells assessed as inhibition of virus-induced cytopathic effect by XTT assay; type: functional, organism-based, ISOLATE ROD
[2] = Therapeutic index, ratio of TC50 for human CEM-SS cells to EC50 for HIV1 RF infected in human CEM-SS cells; type: cell-based; conditions: read-out: TI
[3] = Therapeutic index, ratio of TC50 for human CEM-SS cells to EC50 for HIV2 ROD infected in human CEM-SS cells; type: cell-based; conditions: for selectivity ratio: CEM-SS cells, read-out: TI; for TI: cem-ss
[4] = biological target: Human immunodeficiency virus type 1 reverse transcriptase (Human immunodeficiency virus 1, UniProt Q72547); test: Inhibition of wild type HIV1 reverse transcriptase assessed as 32P-labeled GMP incorporation into nascent DNA strand
[5] = biological target: Human immunodeficiency virus type 1 reverse transcriptase (Human immunodeficiency virus 1, UniProt Q72547, K103N); test: Inhibition of HIV1 reverse transcriptase K103N mutant assessed as 32P-labeled GMP incorporation into nascent DNA strand
[6] = system: Human immunodeficiency virus 1; test: Antiviral activity against HIV1 infected in human HeLa cells expressing CD4-LTR assessed as inhibition of viral entry-related beta galactosidase expression treated for 2 hrs followed by drug wash out measured after 48 hrs by MAGI assay; type: functional, organism-based; conditions: Human immunodeficiency virus 1, HeLa
[7] = Cytotoxicity against human HeLa cells expressing CD4-LTR by XTT assay; type: cell-based; conditions: read-out: TC50 (the source's name)
[8] = Therapeutic index, ratio of TC50 human HeLa cells expressing CD4-LTR to EC50 for HIV1 entry inhibition in human HeLa cells expressing CD4-LTR; type: cell-based; conditions: read-out: TI
[9] = system: Human immunodeficiency virus 1; test: Antiviral activity against HIV1 infected in human CEM-SS cells assessed as inhibition of viral replication and virus-induced cytopathic effect by dose-response curve analysis; type: functional; conditions: Human immunodeficiency virus 1, CEM-SS
[10] = system: Human immunodeficiency virus 2; test: Inhibition of HIV2 reverse transcriptase
[11] = system: Human immunodeficiency virus 2; test: Antiviral activity against HIV2 assessed as inhibition of viral single round replication at early time point; type: functional, organism-based
[12] = system: Human immunodeficiency virus 2; test: Antiviral activity against HIV2 assessed as inhibition of viral replication treated at time points after viral entry into host cells; type: functional, organism-based
[13] = system: Human immunodeficiency virus 2; test: Inhibition of HIV2 reverse transcriptase assessed as 32P-labeled GMP incorporation into nascent DNA strand at highest concentration
[14] = system: Human immunodeficiency virus 1; test: Antiviral activity against HIV1 RF infected in human CEM-SS cells assessed as inhibition of virus-induced cytopathic effect by XTT assay; type: functional, organism-based; conditions: Human immunodeficiency virus 1, RF
[15] = Cytotoxicity against human CEM-SS cells by XTT assay; type: cell-based; conditions: read-out: TC50 (the source's name)
[16] = Human immunodeficiency virus 2, ISOLATE ROD, CEM-SS, read-out: EC50

| SMILES | EC50 [1, 16] | selectivity ratio [2] | selectivity ratio [3] | IC50 [4] | IC50 [5] | EC50 [6] | CC50 [7] | selectivity ratio [8] | EC99 [9] | Activity [10] | Activity [11] | Activity [12] | Activity [13] | EC50 [14] | CC50 [15] | EC50 ([1]; cem-ss) | TI [3] |
| --- | --- | --- | --- | --- | --- | --- | --- | --- | --- | --- | --- | --- | --- | --- | --- | --- | --- |
| CC(C)c1c(Oc2ccccc2)n(CC2CC=CC2)c(=O)[nH]c1=O | 30.7 µM | 55200 | 37.1 | 4.91 µM | > 306 µM | 0.26 µM | 1120 µM | 4370 | 1 µM | inactive | Active | inactive | inactive | 0.02 µM | 1100 µM | – | – |
| Cc1cc(C)cc(Oc2c(C(C)C)c(=O)[nH]c(=O)n2CC2CCCC2)c1 | 1.3 µM | 1050 | 8.8 | 0.157 µM | 1.14 µM | 0.87 µM | 15.5 µM | 18 | 1 µM | inactive | Active | inactive | inactive | 0.019 µM | 11.8 µM | – | – |
| Cc1cc(C)cc(Oc2c(C(C)C)c(=O)[nH]c(=O)n2CC2=CCCC2)c1 | 0.5 µM | 23500 | 32.2 | 0.032 µM | 2.2 µM | 0.18 µM | 20.5 µM | 116 | 1 µM | inactive | Active | inactive | inactive | 0.001 µM | 16.4 µM | – | – |
| CCc1c(C(=O)c2cc(C)cc(C)c2)n(CC2CCCCC2)c(=O)[nH]c1=O | 3 µM | 20300 | > 362 | 0.173 µM | > 271 µM | 0.05 µM | 1090 µM | 20200 | 1 µM | inactive | Active | inactive | inactive | 0.054 µM | 1100 µM | – | – |
| CCc1c(Oc2ccccc2)n(CC2CC=CC2)c(=O)[nH]c1=O | 32 µM | 127 | 2.4 | 2.62 µM | 48.3 µM | 0.15 µM | 76.9 µM | 527 | 1 µM | inactive | Active | inactive | inactive | 0.61 µM | 76.2 µM | – | – |
| Cc1cc(C)cc(Oc2c(C(C)C)c(=O)[nH]c(=O)n2CCC2CC=CC2)c1 | 1.4 µM | 918 | 7.3 | 0.176 µM | 2.3 µM | 2.24 µM | 14.2 µM | 6 | 1 µM | inactive | Active | inactive | inactive | 0.02 µM | 10.3 µM | – | – |
| Cc1cc(C)cc(Sc2c(C(C)C)c(=O)[nH]c(=O)n2CC2CCCC2)c1 | – | 1260 | – | 0.129 µM | > 268 µM | 0.27 µM | 10.6 µM | 39 | 1 µM | inactive | Active | inactive | inactive | 0.011 µM | 7 µM | Not Active | Not Active |
| CCc1c(Oc2cc(C)cc(C)c2)n(CCC2CC=CC2)c(=O)[nH]c1=O | 1.5 µM | 4870 | > 734 | 1.14 µM | 9.8 µM | 1.95 µM | 1110 µM | 570 | 1 µM | inactive | Active | inactive | inactive | 0.23 µM | 1100 µM | – | – |
| Cc1cc(C)cc(Sc2c(C(C)C)c(=O)[nH]c(=O)n2CC2CCC2)c1 | 1.6 µM | 9290 | 3.9 | 0.02 µM | 182 µM | 0.28 µM | 10.4 µM | 37 | 1 µM | inactive | Active | inactive | inactive | 0.00016 µM | 6.1 µM | – | – |
| CC(C)c1c(C(=O)c2ccccc2)n(CC2CC=CC2)c(=O)[nH]c1=O | 18.1 µM | 200000 | > 65.5 | 0.18 µM | > 295 µM | 0.8 µM | 1180 µM | 1480 | 1 µM | inactive | Active | inactive | inactive | 0.0059 µM | 1180 µM | – | – |
| Cc1cc(C)cc(C(=O)c2c(C(C)C)c(=O)[nH]c(=O)n2CCC2=CCCC2)c1 | – | 750 | – | 0.223 µM | 230 µM | 0.03 µM | 29.4 µM | 1040 | 1 µM | inactive | Active | inactive | inactive | 0.053 µM | 19.2 µM | Not Active | Not Active |
| CCc1c(Sc2cc(C)cc(C)c2)n(CC2=CCCC2)c(=O)[nH]c1=O | 2 µM | 15800 | 451 | 0.138 µM | 66.8 µM | 0.009 µM | 887 µM | 104000 | 1 µM | inactive | Active | inactive | inactive | 0.056 µM | 887 µM | – | – |
| CCc1c(Sc2cc(C)cc(C)c2)n(CCC2CCCC2)c(=O)[nH]c1=O | 26.9 µM | 154 | 1.1 | 2.19 µM | 36.8 µM | 0.48 µM | 29 µM | 60 | 1 µM | inactive | Active | inactive | inactive | 0.18 µM | 29 µM | – | – |
| Cc1cc(C)cc(Sc2c(C(C)C)c(=O)[nH]c(=O)n2CC2CCCCC2)c1 | 5.5 µM | 1560 | 2.4 | 0.164 µM | > 258 µM | 0.008 µM | 15.2 µM | 1890 | 1 µM | inactive | Active | inactive | inactive | 0.011 µM | 13.2 µM | – | – |
| CCc1c(Oc2cc(C)cc(C)c2)n(CC2CCCCC2)c(=O)[nH]c1=O | 5.1 µM | 5140 | 28.6 | 0.132 µM | 1.9 µM | 0.23 µM | 129 µM | 555 | 1 µM | inactive | Active | inactive | inactive | 0.028 µM | 114 µM | – | – |
| CCc1c(C(=O)c2cc(C)cc(C)c2)n(CC2CCCC2)c(=O)[nH]c1=O | 0.8 µM | 74700 | 299 | 0.169 µM | 6.9 µM | 0.25 µM | 253 µM | 996 | 1 µM | inactive | Active | inactive | inactive | 0.0034 µM | 253 µM | – | – |
| CCc1c(Oc2cc(C)cc(C)c2)n(CCC2CCCC2)c(=O)[nH]c1=O | – | 57 | – | 0.549 µM | 6.4 µM | 2.35 µM | 55.9 µM | 24 | 1 µM | inactive | Active | inactive | inactive | 1.49 µM | 27 µM | Not Active | Not Active |
| Cc1cc(C)cc(C(=O)c2c(C)c(=O)[nH]c(=O)n2CC2CC=CC2)c1 | 29.6 µM | 14 | 2.8 | 12.7 µM | > 295 µM | 0.68 µM | 81.9 µM | 121 | 1 µM | inactive | Active | inactive | inactive | 5.91 µM | 81.9 µM | – | – |
